# pIC50: −log10 of the molar value. The source made the active and inactive calls. No cut-off for these calls is given here.
# Experiments:
# HepG2 [1] = test: Induction of cell cycle arrest in human HepG2 cells harboring CD44+ assessed as increase in G0/G1 phase arrest at IC50 concentration incubated for 48 hrs by PI staining based flow cytometry analysis; type: functional
# [2] = Toxicity in Wistar rat assessed as toxic signs at 5 to 300 mg/kg, po and observed for 14 days; type: organism-based; conditions: in vivo, 336 h, dose 5-300 mg/kg, time 14 day
# HepG2 [3] = test: Inhibition of epithelial-mesenchymal transition in TGF-beta-induced human HepG2 cells assessed as vimentin expression at IC50 incubated for 48 hrs by flow cytometry analysis (reference value: 98.19 %); type: functional; set-up: scale not given: the % may be the effect or the level left
# HepG2 [4] = test: Induction of apoptosis in human HepG2 cells assessed as necrotic cells by measuring intense red fluorescence at IC50 incubated for 24 hrs by Alexa Fluor488-annexin V/PI staining based fluorescence analysis; type: functional, cell-based
# [5] = Inhibition of VEGF expression in human HUVEC at IC50 incubated for 48 hrs by FITC based flow cytometry analysis relative to control; type: functional
# MDA-MB-231 [6] = test: Induction of apoptosis in human MDA-MB-231 cells assessed as necrotic cells at IC50 incubated for 72 hrs by Alexa Fluor488-annexin V/PI staining based flow cytometric analysis (Rvb= 0.0 %); type: functional
# [7] = Toxicity in Wistar rat assessed as body weight loss at 2000 mg/kg, po and observed for 1 week; type: organism-based; conditions: in vivo, 168 h, time 1 weeks
# MCF7 = test: Antimigratory activity against human MCF7 cells assessed as wound healing at IC50 incubated for 24 hrs by inverted microscopic analysis (reference value: 27.64 %); type: functional
# Chorioallantoic membrane = test: Antiangiogenic activity in chicken fertilized egg chorioallantoic membrane assessed as reduction in membrane growth at 0.01 uM measured upto 72 hrs by CAM assay relative to control; type: functional, tissue-based; conditions: Gallus gallus, time hrs <=72
# [8] = Toxicity in Wistar rat assessed as effect on creatinine level in serum at 5 to 2000 mg/kg, po and measured on day 15; type: organism-based; conditions: in vivo, 360 h, dose 5-2000 mg/kg, time 15 day
# HepG2 [9] = test: Cytotoxicity against human HepG2 cells assessed as reduction in cell viability incubated for 24 hrs by MTT assay; type: functional, cell-based
# [10] = AUC (0 to 72 hrs) in Wistar rat at 5 mg/kg, po measured upto 72 hrs by HPLC-MS analysis; type: ADME, organism-based; set-up: route oral, dose 5 mg/kg, time <=72; conditions: in vivo
# [11] = Inhibition of VEGFR2 expression in human HUVEC at IC50 incubated for 48 hrs by fluorescence microscopic analysis relative to control; type: functional
# [12] = Toxicity in female Wistar rat assessed as apathy occurence at 2000 mg/kg, po observed for 48 hrs; type: organism-based; conditions: in vivo
# [13] = Toxicity in Wistar rat assessed as normal cardiac muscles and cardiac fibers with intact length without inflammatory changes at 2000 mg/kg, po and measured on day 15 by microscopic analysis; type: organism-based; conditions: in vivo, 360 h, time 15 day
# HepG2 [14] = test: Induction of ROS production in human HepG2 cells at IC50 incubated for 3 hrs by fluorescence microscopic analysis; type: functional, cell-based
# HepG2 [15] = test: Induction of apoptosis in human HepG2 cells assessed as apoptotic index at IC50 incubated for 24 hrs by EtBr/AO staining based fluorescence microscopic analysis (reference value: 1.99 %); type: functional
# [16] = Toxicity in Wistar rat assessed as effect on relative weight of kidney at 5 to 2000 mg/kg, po and measured on day 15; type: organism-based; conditions: in vivo, 360 h, dose 5-2000 mg/kg, time 15 day
# [17] = Toxicity in female Wistar rat assessed as difficult to breathe at 2000 mg/kg, po observed for 48 hrs; type: organism-based; conditions: in vivo
# [18] = Toxicity in Wistar rat assessed as normal ovary with primary to tertiary developing follicles and mature follicles at 2000 mg/kg, po and measured on day 15 by microscopic analysis; type: organism-based; conditions: in vivo, 360 h, time 15 day
# [19] = Cmax in Wistar rat at 5 mg/kg, po measured upto 72 hrs by HPLC-MS analysis; type: ADME, organism-based; set-up: route oral, dose 5 mg/kg, time <=72; conditions: in vivo
# [20] = Toxicity in Wistar rat assessed as effect on relative weight of heart at 5 to 2000 mg/kg, po and measured on day 15; type: organism-based; conditions: in vivo, 360 h, dose 5-2000 mg/kg, time 15 day
# [21] = Toxicity in Wistar rat assessed as effect on ALP level in serum at 5 to 2000 mg/kg, po and measured on day 15; type: organism-based; conditions: in vivo, 360 h, dose 5-2000 mg/kg, time 15 day
# HepG2 [22] = test: Antiproliferative activity against human HepG2 cells harboring CD44+ assessed as reduction in cell viability incubated for 24 hrs by MTT assay; type: functional, cell-based
# [23] = Toxicity in Wistar rat assessed as effect on hematological parameters at 5 to 2000 mg/kg, po and measured on day 15; type: organism-based; conditions: in vivo, 360 h, dose 5-2000 mg/kg, time 15 day
# MDA-MB-231 [24] = test: Induction of apoptosis in human MDA-MB-231 cells assessed as late apoptotic cells at IC50 incubated for 72 hrs by Alexa Fluor488-annexin V/PI staining based flow cytometric analysis (Rvb= 0.0 %); type: functional
# HepG2 [25] = test: Inhibition of epithelial-mesenchymal transition in TGF-beta-induced human HepG2 cells assessed as SNAIL expression at IC50 incubated for 48 hrs by flow cytometry analysis (reference value: 97.78 %); type: functional; set-up: scale not given: the % may be the effect or the level left
# HepG2 [26] = test: Induction of apoptosis in human HepG2 cells assessed as blebbing of nucleus by measuring orange coloured fluorescence at IC50 incubated for 24 hrs by EtBr/AO staining based fluorescence microscopic analysis; type: functional, cell-based
# [27] = Toxicity in Wistar rat assessed as effect on total bilirubin level in serum at 5 to 2000 mg/kg, po and measured on day 15; type: organism-based; conditions: in vivo, 360 h, dose 5-2000 mg/kg, time 15 day
# [28] = Toxicity in Wistar rat assessed as normal liver parenchyma with normal hepatocytes arranged in hepatic strands and normal vascular tissue and bile duct without inflammatory or pathological changes at 2000 mg/kg, po and measured on day 15 by microscopic analysis; type: organism-based; conditions: in vivo, 360 h, time 15 day
# [29] = Toxicity in Wistar rat assessed as effect on SGOT level at 5 to 2000 mg/kg, po and measured on day 15; type: organism-based; conditions: in vivo, 360 h, dose 5-2000 mg/kg, time 15 day
# [30] = AUC (0 to infinity) in Wistar rat at 5 mg/kg, po by HPLC-MS analysis; type: ADME, organism-based; set-up: route oral, time infinity, dose 5 mg/kg; conditions: in vivo
# HepG2 [31] = test: Induction of apoptosis in human HepG2 cells assessed as early apoptotic cells by measuring green fluorescence at IC50 incubated for 24 hrs by Alexa Fluor488-annexin V/PI staining based fluorescence analysis; type: functional, cell-based
# HepG2 [32] = test: Induction of apoptosis in human HepG2 cells assessed as early apoptotic cells by measuring yellowish green coloured nucleus at IC50 incubated for 24 hrs by EtBr/AO staining based fluorescence microscopic analysis; type: functional, cell-based
# HepG2 [33] = test: Induction of apoptosis in human HepG2 cells assessed as late apoptotic cells by measuring green fluorescence membrane with fragmented red nucleus at IC50 incubated for 24 hrs by Alexa Fluor488-annexin V/PI staining based fluorescence analysis; type: functional, cell-based
# [34] = Inhibition of VEGFR2 expression in human HUVEC assessed as mean fluorescence intensity at IC50 incubated for 48 hrs by FITC based flow cytometry analysis (reference value: 49.24 +/- 0.47); type: functional
# HepG2 [35] = test: Antiproliferative activity against human HepG2 cells harboring CD133+ assessed as reduction in cell viability incubated for 24 hrs by MTT assay; type: functional, cell-based
smiles,measurement,setting,value
CC(=O)Nc1ccc(Oc2cccc3c(NC(=O)Nc4cccc(C(F)(F)F)c4)cccc23)cc1,Activity,HepG2 [1],Active
same,Activity,[2],Non-Toxic
same,Activity,HepG2 [3],20.44%
same,Activity,HepG2 [4],Active
same,fold change (FC),[5],0.39
same,Activity,MDA-MB-231 [6],0.3%
same,Activity,[7],Toxic
same,Activity,MCF7,3.02%
same,inhibition,Chorioallantoic membrane,> 50%
same,Activity,[8],Non-Toxic
same,inhibition,HepG2 [9],Dose-dependent effect
same,pIC50,"HepG2 [9]; HepG2, 24 h",6.59
same,AUC(0-t),[10],621 µg·h/mL
same,fold change (FC),[11],0.37
same,Activity,[12],Toxic
same,Activity,[13],Non-Toxic
same,Activity,HepG2 [14],Active
same,Activity,HepG2 [15],86.66%
same,Activity,[16],Non-Toxic
same,Activity,[17],Toxic
same,Activity,[18],Non-Toxic
same,Cmax,[19],39700 ng/mL
same,Activity,[20],Non-Toxic
same,Activity,[21],Non-Toxic
same,inhibition,HepG2 [22],Dose-dependent effect
same,pIC50,"HepG2 [22]; HepG2, 24 h",5.48
same,Activity,[23],Non-Toxic
same,Activity,MDA-MB-231 [24],4.3%
same,Activity,HepG2 [25],10.26%
same,Activity,HepG2 [26],Active
same,Activity,[27],Non-Toxic
same,Activity,[28],Non-Toxic
same,Activity,[29],Non-Toxic
same,AUC(0-inf),[30],625 µg·h/mL
same,Activity,HepG2 [31],Active
same,Activity,HepG2 [32],Active
same,Activity,HepG2 [33],Active
same,Flu intensity,[34],18.41
same,inhibition,HepG2 [35],Dose-dependent effect
same,pIC50,"HepG2 [35]; HepG2, 24 h",5.66
